Laboratory results reported in patent publication US9963442B2, “Pyridones as herbicides” (E I DU PONT DE NEMOURS AND COMPANY, priority 2014, dated 2018).

How the values were obtained:
Assay type in all cases: in vivo
[1] = tested on: oilseed rape (Brassica napus); assay: Test C postemergence; conditions: scale 0 to 100, 0 is no effect, 100 is complete control
From the text: (§1) Seeds of plant species selected from blackgrass (Alopecurus myosuroides), Italian ryegrass (Lolium multiflorum), winter wheat (Triticum aestivum), galium (catchweed bedstraw, Galium aparine), corn (Zea mays), large (Lg) crabgrass (Digitaria sanguinalis), giant foxtail (Setaria faberii), johnsongrass (Sorghum halepense), lambsquarters (Chenopodium album), morningglory (Ipomoea coccinea), yellow nutsedge (Cyperus esculentus), pigweed (Amaranthus retroflexus), ragweed (common ragweed, Ambrosia elatior), soybean (Glycine max), barnyardgrass (Echinochloa crus-galli), oilseed rape (Brassica napus), waterhemp (common waterhemp, Amaranthus rudis), and velvetleaf (Abutilon theophrasti) were planted into a blend of loam soil and sand and treated preemergence with test chemicals formulated in a non-phytotoxic solvent mixture which included a surfactant. At the same time, plants selected from these crop and weed species and also chickweed (common chickweed, Stellaria media), kochia (Kochia scoparia), and wild oat (Avena fatua), were planted in pots containing Sunshine Redi-Earth® planting medium comprising spaghnum peat moss, vermiculite, starter nutrients and dolomitic limestone and treated with postemergence applications of test chemicals formulated in the same manner. Plants ranged in height from 2 to 18 cm (1- to 4-leaf stage) for postemergence treatments. Treated plants and controls were maintained in a greenhouse for 13 to 15 days, after which time all species were compared to controls and visually evaluated. Plant response ratings, summarized in Table C, are based on a scale of 0 to 100 where 0 is no effect and 100 is complete control. A dash (-) response means no test result.

[2] = tested on: giant foxtail (Setaria faberii); assay: Test C postemergence; conditions: scale 0 to 100, 0 is no effect, 100 is complete control
From the text: as §1

[3] = tested on: johnsongrass (Sorghum halepense); assay: Test C postemergence; conditions: scale 0 to 100, 0 is no effect, 100 is complete control
From the text: as §1

[4] = tested on: galium (catchweed bedstraw, Galium aparine); assay: Test C postemergence; conditions: scale 0 to 100, 0 is no effect, 100 is complete control
From the text: as §1

[5] = tested on: ragweed (common ragweed, Ambrosia elatior); assay: Test C postemergence; conditions: scale 0 to 100, 0 is no effect, 100 is complete control
From the text: as §1

[6] = tested on: sedge, umbrella (small-flower umbrella sedge, Cyperus difformis); assay: Test B flooded paddy test; set-up: key: 0 = no effect, 100 = complete control; conditions: Flood, 250 g ai/ha applied to paddy water at 2-leaf stage; visually evaluated after 13 to 15 days; scale 0 (no effect) to 100 (complete control)
How it was run: (§2)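 Plants were grown to the 2-leaf stage, then pots were flooded to 3 cm above the soil and compound was applied directly into the paddy water, with that depth held throughout. After 13 to 15 days in a greenhouse, injury was rated visually against untreated controls on a 0 to 100 scale (100 = complete control).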

[7] = tested on: barnyardgrass (Echinochloa crus-galli); assay: Test B flooded paddy test; set-up: key: 0 = no effect, 100 = complete control; conditions: Flood, 250 g ai/ha applied to paddy water at 2-leaf stage; visually evaluated after 13 to 15 days; scale 0 (no effect) to 100 (complete control)
How it was run: as §2

[8] = tested on: ducksalad (Heteranthera limosa); assay: Test B flooded paddy test; set-up: key: 0 = no effect, 100 = complete control; conditions: Flood, 250 g ai/ha applied to paddy water at 2-leaf stage; visually evaluated after 13 to 15 days; scale 0 (no effect) to 100 (complete control)
How it was run: as §2

rice (Oryza sativa) = assay: Test B flooded paddy test; set-up: key: 0 = no effect, 100 = complete control; conditions: Flood, 250 g ai/ha applied to paddy water at 2-leaf stage; visually evaluated after 13 to 15 days; scale 0 (no effect) to 100 (complete control)
How it was run: as §2

[9] = tested on: giant foxtail (Setaria faberii); assay: Test A postemergence application; conditions: approx. 10 days
How it was run: (§3)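 Postemergence: seedlings 2–10 cm, 1–2 leaf stage, sprayed; preemergence: directed soil spray after sowing. Surfactant-containing non-phytotoxic solvent vehicle. Visual rating vs. controls at ~10 d, 0 = no effect, 100 = complete control.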

[10] = tested on: Italian ryegrass (Lolium multiflorum); assay: Test A postemergence application; conditions: approx. 10 days
How it was run: as §3

[11] = tested on: pigweed (Amaranthus retroflexus); assay: Test A postemergence application; conditions: approx. 10 days
How it was run: as §3

[12] = tested on: galium (catchweed bedstraw, Galium aparine); assay: Test A postemergence application; conditions: approx. 10 days
How it was run: as §3

[13] = tested on: wheat (Triticum aestivum); assay: Test A postemergence application; conditions: approx. 10 days
How it was run: as §3

kochia (Kochia scoparia) = assay: Test A postemergence application; conditions: approx. 10 days
How it was run: as §3

[14] = tested on: barnyardgrass (Echinochloa crus-galli); assay: Test A postemergence application; conditions: approx. 10 days
How it was run: as §3

[15] = tested on: blackgrass (Alopecurus myosuroides); assay: Test A postemergence application; conditions: approx. 10 days
How it was run: as §3

corn (Zea mays) = assay: Test A postemergence application; conditions: approx. 10 days
How it was run: as §3

[16] = tested on: ragweed (common ragweed, Ambrosia elatior); assay: Test A postemergence application; conditions: approx. 10 days
How it was run: as §3

O=c1cccc(Oc2ncc(Cl)cn2)n1-c1ccc(C(F)(F)F)cn1 [Compound 7]
Plant response rating, Oilseed Rape ([1]; 16 g ai/ha): 20 | Plant response rating, Oilseed Rape ([1]; 31 g ai/ha): 35 | Plant response rating, Oilseed Rape ([1]; 62 g ai/ha): 40 | Plant response rating, Oilseed Rape ([1]; 125 g ai/ha): 35 | Plant response rating, Foxtail, Giant ([2]; 16 g ai/ha): 10 | Plant response rating, Foxtail, Giant ([2]; 31 g ai/ha): 10 | Plant response rating, Foxtail, Giant ([2]; 62 g ai/ha): 15 | Plant response rating, Foxtail, Giant ([2]; 125 g ai/ha): 20 | Plant response rating, Johnsongrass ([3]; 16 g ai/ha): 5 | Plant response rating, Johnsongrass ([3]; 31 g ai/ha): 5 | Plant response rating, Johnsongrass ([3]; 62 g ai/ha): 10 | Plant response rating, Johnsongrass ([3]; 125 g ai/ha): 10 | Plant response rating, Galium ([4]; 16 g ai/ha): 45 | Plant response rating, Galium ([4]; 31 g ai/ha): 50 | Plant response rating, Galium ([4]; 62 g ai/ha): 60 | Plant response rating, Galium ([4]; 125 g ai/ha): 75 | Plant response rating, Ragweed ([5]; 16 g ai/ha): 25 | Plant response rating, Ragweed ([5]; 31 g ai/ha): 30 | Plant response rating, Ragweed ([5]; 62 g ai/ha): 35 | Plant response rating, Ragweed ([5]; 125 g ai/ha): 55 | Plant response rating, Sedge, Umbrella [6]: 90 | Plant response rating, Barnyardgrass [7]: 0 | Plant response rating, Ducksalad [8]: 100 | Plant response rating, Rice (rice (Oryza sativa)): 0 | Plant response rating (0 to 100 scale, 0 no effect, 100 complete control), Foxtail, Giant ([9]; 31 g ai/ha): 20 | Plant response rating (0 to 100 scale, 0 no effect, 100 complete control), Foxtail, Giant ([9]; 125 g ai/ha): 50 | Plant response rating (0 to 100 scale, 0 no effect, 100 complete control), Ryegrass, Italian ([10]; 31 g ai/ha): 0 | Plant response rating (0 to 100 scale, 0 no effect, 100 complete control), Ryegrass, Italian ([10]; 125 g ai/ha): 20 | Plant response rating (0 to 100 scale, 0 no effect, 100 complete control), Pigweed ([11]; 31 g ai/ha): 70 | Plant response rating (0 to 100 scale, 0 no effect, 100 complete control), Pigweed ([11]; 125 g ai/ha): 90 | Plant response rating (0 to 100 scale, 0 no effect, 100 complete control), Galium ([12]; 31 g ai/ha): 50 | Plant response rating (0 to 100 scale, 0 no effect, 100 complete control), Galium ([12]; 125 g ai/ha): 90 | Plant response rating (0 to 100 scale, 0 no effect, 100 complete control), Wheat ([13]; 31 g ai/ha): 0 | Plant response rating (0 to 100 scale, 0 no effect, 100 complete control), Wheat ([13]; 125 g ai/ha): 20 | Plant response rating (0 to 100 scale, 0 no effect, 100 complete control), Kochia (kochia (Kochia scoparia); 31 g ai/ha): 80 | Plant response rating (0 to 100 scale, 0 no effect, 100 complete control), Kochia (kochia (Kochia scoparia); 125 g ai/ha): 90 | Plant response rating (0 to 100 scale, 0 no effect, 100 complete control), Barnyardgrass ([14]; 31 g ai/ha): 20 | Plant response rating (0 to 100 scale, 0 no effect, 100 complete control), Barnyardgrass ([14]; 125 g ai/ha): 50 | Plant response rating (0 to 100 scale, 0 no effect, 100 complete control), Blackgrass ([15]; 31 g ai/ha): 10 | Plant response rating (0 to 100 scale, 0 no effect, 100 complete control), Blackgrass ([15]; 125 g ai/ha): 30 | Plant response rating (0 to 100 scale, 0 no effect, 100 complete control), Corn (corn (Zea mays); 31 g ai/ha): 10 | Plant response rating (0 to 100 scale, 0 no effect, 100 complete control), Corn (corn (Zea mays); 125 g ai/ha): 20 | Plant response rating (0 to 100 scale, 0 no effect, 100 complete control), Ragweed ([16]; 31 g ai/ha): 30 | Plant response rating (0 to 100 scale, 0 no effect, 100 complete control), Ragweed ([16]; 125 g ai/ha): 60

O=c1cccc(Oc2ncc(Cl)cn2)n1-c1ccc(C(F)(F)F)cc1 [Compound 10]
Plant response rating, Oilseed Rape ([1]; 16 g ai/ha): 5 | Plant response rating, Oilseed Rape ([1]; 31 g ai/ha): 25 | Plant response rating, Oilseed Rape ([1]; 62 g ai/ha): 80 | Plant response rating, Oilseed Rape ([1]; 125 g ai/ha): 80 | Plant response rating, Foxtail, Giant ([2]; 16 g ai/ha): 10 | Plant response rating, Foxtail, Giant ([2]; 31 g ai/ha): 15 | Plant response rating, Foxtail, Giant ([2]; 62 g ai/ha): 10 | Plant response rating, Foxtail, Giant ([2]; 125 g ai/ha): 20 | Plant response rating, Johnsongrass ([3]; 16 g ai/ha): 5 | Plant response rating, Johnsongrass ([3]; 31 g ai/ha): 10 | Plant response rating, Johnsongrass ([3]; 62 g ai/ha): 10 | Plant response rating, Johnsongrass ([3]; 125 g ai/ha): 25 | Plant response rating, Galium ([4]; 16 g ai/ha): 45 | Plant response rating, Galium ([4]; 31 g ai/ha): 50 | Plant response rating, Galium ([4]; 62 g ai/ha): 75 | Plant response rating, Galium ([4]; 125 g ai/ha): 80 | Plant response rating, Ragweed ([5]; 16 g ai/ha): 25 | Plant response rating, Ragweed ([5]; 31 g ai/ha): 25 | Plant response rating, Ragweed ([5]; 62 g ai/ha): 60 | Plant response rating, Ragweed ([5]; 125 g ai/ha): 65 | Plant response rating, Sedge, Umbrella [6]: 90 | Plant response rating, Barnyardgrass [7]: 30 | Plant response rating, Ducksalad [8]: 65 | Plant response rating, Rice (rice (Oryza sativa)): 20 | Plant response rating (0 to 100 scale, 0 no effect, 100 complete control), Foxtail, Giant ([9]; 31 g ai/ha): 50 | Plant response rating (0 to 100 scale, 0 no effect, 100 complete control), Foxtail, Giant ([9]; 125 g ai/ha): 90 | Plant response rating (0 to 100 scale, 0 no effect, 100 complete control), Ryegrass, Italian ([10]; 31 g ai/ha): 0 | Plant response rating (0 to 100 scale, 0 no effect, 100 complete control), Ryegrass, Italian ([10]; 125 g ai/ha): 60 | Plant response rating (0 to 100 scale, 0 no effect, 100 complete control), Pigweed ([11]; 31 g ai/ha): 70 | Plant response rating (0 to 100 scale, 0 no effect, 100 complete control), Pigweed ([11]; 125 g ai/ha): 90 | Plant response rating (0 to 100 scale, 0 no effect, 100 complete control), Galium ([12]; 31 g ai/ha): 30 | Plant response rating (0 to 100 scale, 0 no effect, 100 complete control), Galium ([12]; 125 g ai/ha): 80 | Plant response rating (0 to 100 scale, 0 no effect, 100 complete control), Wheat ([13]; 31 g ai/ha): 0 | Plant response rating (0 to 100 scale, 0 no effect, 100 complete control), Wheat ([13]; 125 g ai/ha): 10 | Plant response rating (0 to 100 scale, 0 no effect, 100 complete control), Kochia (kochia (Kochia scoparia); 31 g ai/ha): 80 | Plant response rating (0 to 100 scale, 0 no effect, 100 complete control), Kochia (kochia (Kochia scoparia); 125 g ai/ha): 90 | Plant response rating (0 to 100 scale, 0 no effect, 100 complete control), Barnyardgrass ([14]; 31 g ai/ha): 40 | Plant response rating (0 to 100 scale, 0 no effect, 100 complete control), Barnyardgrass ([14]; 125 g ai/ha): 90 | Plant response rating (0 to 100 scale, 0 no effect, 100 complete control), Blackgrass ([15]; 31 g ai/ha): 30 | Plant response rating (0 to 100 scale, 0 no effect, 100 complete control), Blackgrass ([15]; 125 g ai/ha): 50 | Plant response rating (0 to 100 scale, 0 no effect, 100 complete control), Corn (corn (Zea mays); 31 g ai/ha): 20 | Plant response rating (0 to 100 scale, 0 no effect, 100 complete control), Corn (corn (Zea mays); 125 g ai/ha): 30 | Plant response rating (0 to 100 scale, 0 no effect, 100 complete control), Ragweed ([16]; 31 g ai/ha): 10 | Plant response rating (0 to 100 scale, 0 no effect, 100 complete control), Ragweed ([16]; 125 g ai/ha): 20
